Measurements reported in patent publication US20240124432A1, “HERBICIDAL COMPOUNDS” (SYNGENTA CROP PROTECTION AG, priority 2020, published 2024).

Assays:
Format in all cases: in vivo
CHEAL = test: Post-emergence biological efficacy; details: Chenopodium album, 312 h, evaluated after 13 days, read-out: damage to plant (100=total damage to plant; 0=no damage to plant)
Outline: (§1)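 Damage was rated 13 days after treatment, from 0 (none) to 100 (total). Test compounds, formulated in IF50 and diluted with 0.2% Genapol XO80 to final dose, were sprayed on glasshouse plants raised for 14 days from seed.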

IPOHE [1] = test: Post-emergence biological efficacy; details: Ipomoea hederacea, 312 h, evaluated after 13 days, read-out: damage to plant (100=total damage to plant; 0=no damage to plant)
Outline: as §1

ELEIN = test: Post-emergence biological efficacy; details: 312 h, evaluated after 13 days, read-out: damage to plant (100=total damage to plant; 0=no damage to plant)
Outline: as §1

LOLPE [2] = test: Post-emergence biological efficacy; details: Lolium perenne, 312 h, evaluated after 13 days, read-out: damage to plant (100=total damage to plant; 0=no damage to plant)
Outline: as §1

DIGSA = test: Post-emergence biological efficacy; details: Digitaria sanguinalis, 312 h, evaluated after 13 days, read-out: damage to plant (100=total damage to plant; 0=no damage to plant)
Outline: as §1

EPHHL [3] = test: Post-emergence biological efficacy; details: Euphorbia heterophylla, 312 h, evaluated after 13 days, read-out: damage to plant (100=total damage to plant; 0=no damage to plant)
Outline: as §1

AMAPA [4] = test: Post-emergence biological efficacy; details: Amaranthus palmeri, 312 h, evaluated after 13 days, read-out: damage to plant (100=total damage to plant; 0=no damage to plant)
Outline: as §1

ECHCG [5] = test: Post-emergence biological efficacy; details: Echinochloa crus-galli, 312 h, evaluated after 13 days, read-out: damage to plant (100=total damage to plant; 0=no damage to plant)
Outline: as §1

SETFA [6] = test: Post-emergence biological efficacy; details: Setaria faberi, 312 h, evaluated after 13 days, read-out: damage to plant (100=total damage to plant; 0=no damage to plant)
Outline: as §1

IPOHE [7] = test: Pre-emergence biological efficacy; details: Ipomoea hederacea, 312 h, evaluated after 13 days, read-out: damage to plant (100=total damage to plant; 0=no damage to plant)
Outline: (§2)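 Seeds were sown in standard soil in pots, kept 1 day in a glasshouse (24/19 °C day/night, 16 h light), then sprayed with test compound formulated in acetone plus IF50 emulsifier mixture and diluted in 0.2% Genapol XO80 to the desired final dose. Damage was scored after 13 days (0–100).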

LOLPE [8] = test: Pre-emergence biological efficacy; details: Lolium perenne, 312 h, evaluated after 13 days, read-out: damage to plant (100=total damage to plant; 0=no damage to plant)
Outline: as §2

EPHHL [9] = test: Pre-emergence biological efficacy; details: Euphorbia heterophylla, 312 h, evaluated after 13 days, read-out: damage to plant (100=total damage to plant; 0=no damage to plant)
Outline: as §2

AMAPA [10] = test: Pre-emergence biological efficacy; details: Amaranthus palmeri, 312 h, evaluated after 13 days, read-out: damage to plant (100=total damage to plant; 0=no damage to plant)
Outline: as §2

ECHCG [11] = test: Pre-emergence biological efficacy; details: Echinochloa crus-galli, 312 h, evaluated after 13 days, read-out: damage to plant (100=total damage to plant; 0=no damage to plant)
Outline: as §2

SETFA [12] = test: Pre-emergence biological efficacy; details: Setaria faberi, 312 h, evaluated after 13 days, read-out: damage to plant (100=total damage to plant; 0=no damage to plant)
Outline: as §2

Row | SMILES | pest or weed control at 250 g/ha (CHEAL) | pest or weed control at 250 g/ha (IPOHE [1]) | pest or weed control at 250 g/ha (ELEIN) | pest or weed control at 250 g/ha (LOLPE [2]) | pest or weed control at 250 g/ha (DIGSA) | pest or weed control at 250 g/ha (EPHHL [3]) | pest or weed control at 250 g/ha (AMAPA [4]) | pest or weed control at 250 g/ha (ECHCG [5]) | pest or weed control at 250 g/ha (SETFA [6]) | pest or weed control at 250 g/ha (IPOHE [7]) | pest or weed control at 250 g/ha (LOLPE [8]) | pest or weed control at 250 g/ha (EPHHL [9]) | pest or weed control at 250 g/ha (AMAPA [10]) | pest or weed control at 250 g/ha (ECHCG [11]) | pest or weed control at 250 g/ha (SETFA [12])
1 | CCOC(=O)C1(C)CC(c2cc(-c3cnc4ccccc4c3)c(F)cc2Cl)=NO1 (stereo not drawn) [Compound 1-439, Ethyl 3-[2-chloro-4-fluoro-5-(3-quinolyl)-phenyl]-5-methyl-4H-isoxazole-5-carboxylate] | 50% | 40% | 50% | 20% | 30% | 40% | 70% | 30% | 30% | 10% | 20% | 10% | 50% | 30% | 20%
2 | CCOC(=O)C1(C)CC(c2cc(-c3cnc4c(c3)OC(F)(F)O4)c(F)cc2Cl)=NO1 (stereo not drawn) [Compound 1-451, Ethyl 3-[2-chloro-5-(2,2-difluoro-[1,3]dioxolo[4,5-b]pyridin-6-yl)-4-fluoro-phenyl]-5-methyl-4H-isoxazole-5-carboxylate] | 100% | 100% | 100% | 100% | 100% | 100% | 100% | 100% | 100% | 50% | 40% | 80% | 90% | 40% | 40%
3 | CCOC(=O)C1(C)CC(c2cc(-c3ccc(C)nc3F)c(F)cc2Cl)=NO1 (stereo not drawn) [Compound 1-463, Ethyl 3-[2-chloro-4-fluoro-5-(2-fluoro-6-methyl-3-pyridyl)-phenyl]-5-methyl-4H-isoxazole-5-carboxylate] | 70% | 100% | 60% | 0% | 70% | 70% | 70% | 90% | 90% | 10% | 10% | 20% | 20% | 50% | 30%
4 | CCOC(=O)C1(C)CC(c2cc(-c3cc(F)cnc3Cl)c(F)cc2Cl)=NO1 (stereo not drawn) [Compound 1-475, Ethyl 3-[2-chloro-5-(2-chloro-5-fluoro-3-pyridyl)-4-fluoro-phenyl]-5-methyl-4H-isoxazole-5-carboxylate] | 100% | 100% | 30% | 10% | 50% | 70% | 100% | 80% | 80% | 20% | 0% | 40% | 0% | 0% | 0%
5 | CCOC(=O)C1(C)CC(c2cc(-c3ccncc3)c(F)cc2Cl)=NO1 (stereo not drawn) [Compound 1-487, Ethyl 3-[2-chloro-4-fluoro-5-(4-pyridyl)-phenyl]-5-methyl-4H-isoxazole-5-carboxylate] | 0% | 0% | 0% | 0% | 0% | 0% | 30% | 0% | 0% | 0% | 0% | 0% | 0% | 0% | 0%
6 | CCOC(=O)C1(C)CC(c2cc(-c3ccnc(C(F)(F)F)c3)c(F)cc2Cl)=NO1 (stereo not drawn) [Compound 1-499, Ethyl 3-[2-chloro-4-fluoro-5-[2-(trifluoromethyl)-4-pyridyl]-phenyl]-5-methyl-4H-isoxazole-5-carboxylate] | 80% | 70% | 60% | 0% | 60% | 50% | 80% | 50% | 80% | 0% | 20% | 0% | 20% | 0% | 0%
7 | CCOC(=O)C1(C)CC(c2cc(-c3cc(Cl)ncc3OC)c(F)cc2Cl)=NO1 (stereo not drawn) [Compound 1-511, Ethyl 3-[2-chloro-5-(2-chloro-5-methoxy-4-pyridyl)-4-fluoro-phenyl]-5-methyl-4H-isoxazole-5-carboxylate] | 50% | 60% | 40% | 0% | 30% | 50% | 40% | 30% | 30% | 0% | 0% | 0% | 0% | 0% | 0%
8 | CCOC(=O)C1(C)CC(c2cc(-c3cc(Cl)nc(OC)c3)c(F)cc2Cl)=NO1 (stereo not drawn) [Compound 1-523, Ethyl 3-[2-chloro-5-(2-chloro-6-methoxy-4-pyridyl)-4-fluoro-phenyl]-5-methyl-4H-isoxazole-5-carboxylate] | 40% | 60% | 10% | 0% | 50% | 50% | 50% | 20% | 50% | 0% | 0% | 0% | 0% | 20% | 0%
9 | CCOC(=O)C1(C)CC(c2cc(-c3ncc(F)cc3F)c(F)cc2Cl)=NO1 (stereo not drawn) [Compound 1-551, Ethyl 3-[2-chloro-5-(3,5-difluoro-2-pyridyl)-4-fluoro-phenyl]-5-methyl-4H-isoxazole-5-carboxylate] | 100% | 100% | 100% | 100% | 100% | 90% | 100% | 100% | 100% | 60% | 50% | 50% | 80% | 80% | 90%
